Laboratory results as given in US20080176251A1, “Preparation of high purity phenothiazine N-alkylsulfonates and their use in chemiluminescent assays for the measurement of peroxidase acitivity” (Cyanagen Srl, priority 2007, published 2008).

Assays:
peroxidase enzyme = details: phenothiazine present as impurity in the enhancer; according to U.S. Pat. No. 6,432,662; cited from earlier work
[1] = tested on: horseradish peroxidase (HRP-Type VIIA); assay: luminol-peroxide-peroxidase chemiluminescent reaction, dependence on enhancer concentration (Example 3); type: biochemical; details: 2.50 mM luminol, 2.00 mM perborate, pH 8.6
Experimental: All measurements reported in Example 3 were carried out with a spectrofluorimeter (Varian Eclipse), Bio/Chemiluminescence Mode (wavelength of emission: 425 nm; emission slit: 20 nm). A series of substrates in 0.1 M, pH 8.6 Tris Buffer is prepared, with the following compositions: • [luminol sodium salt]=2.50 mM • [sodium perborate]=2.00 mM • 3-(phenothiazin-10-yl)propane-1-sulfonate=11.5 μM, 23 μM, 47 μM, 94 μM, 188 μM, 375 μM, 1500 μM e 3000 μM.
To a polymethylmethacrylate fluorimetry cuvette of containing 2 mL of each substrate, is added 10 μL of a solution of 0.5 μg/mL of horseradish peroxidase (HRP-Type VIIA). After mixing the solution with a vortex for a few seconds, measurement of the luminescent signal is initiated. […] The dependence of the chemiluminescent signal (plateau value) for each substrate, is reported graphically in FIG. 1. The luminescent signal grows very rapidly with increasing concentration of the enhancer, 3-(phenothiazin-10-yl)propane-1-sulfonate, until it reaches a maximum value between 0.5 and 1 mM. Further raising the concentration of the enhancer, the chemiluminescent signal begins to decline slowly. At the highest concentration of enhancer, 3.0 mM, the signal is approximately 70% of the maximum value.

[2] = tested on: horseradish peroxidase (HRP-Type VIIA); assay: pH dependence of the enhanced luminol-peroxide-peroxidase chemiluminescent reaction (Example 5); type: biochemical; details: 5.0 mM luminol, 4.00 mM perborate, 1.50 mM enhancer; all pH values
Experimental: All measurements reported in Example 5 were carried out with a fluorimeter (Varian Eclipse), Bio/Chemiluminescence Mode (wavelength of emission: 425 nm; emission slit: 10 nm; emission filter: open; photomultiplier voltage: medium). A series of substrates in 0.125 M, pH 9.1 Tris Buffer is prepared, with the following composition: • [luminol sodium salt]=5.0 mM. • [sodium perborate]=4.00 mM • 3-(phenothiazin-10-yl)propane-1-sulfonate=1.50 mM
A series of polymethylmethacrylate fluorimetry cuvettes is prepared, each containing of containing 2 mL of substrate. To each cuvette is added a small amount of 5M or 12M HCl, in order to adjust the pH to the following values: 9.02, 8.76, 8.51, 8.41, 8.28, 8.14 and 7.95, and limiting changes in the total volume to less than 5%. Then to each cuvette are added 10 μL of a 0.5 μg/mL solution of horseradish peroxidase (HRP-Type VIIA). After mixing the solution with a vortex for a few seconds, measurement of the luminescent signal is initiated. […] From the results obtained, which are shown in FIG. 3, it is evident that the chemiluminescent signal reaches the maximum value in the range between pH 8.3 and pH 8.6.

[3] = tested on: horseradish peroxidase (HRP-Type VIIA); assay: enhanced luminol-peroxide-peroxidase chemiluminescent reaction, dependence on luminol concentration (Example 4); type: biochemical
Experimental: All measurements reported in Example 4 were carried out with a spectrofluorimeter (Varian Eclipse), Bio/Chemiluminescence Mode (wavelength of emission: 425 nm; emission slit: 20 nm). A series of substrates in 0.1 M, pH 8.6 Tris Buffer is prepared, with the following compositions: • [luminol sodium salt]=0.625 mM, 1.25 mM, 2.50 mM, 5.0 mM, 10 mM. • [sodium perborate]=2.00 mM • 3-(phenothiazin-10-yl)propane-1-sulfonate=0.75 mM
To a polymethylmethacrylate fluorimetry cuvette of containing 2 mL of each substrate, is added 10 μL of a solution of 0.5 μg/mL of horseradish peroxidase (HRP-Type VIIA). After mixing the solution with a vortex for a few seconds, measurement of the luminescent signal is initiated. […] The dependence of the chemiluminescent signal (plateau value) for each substrate, is reported graphically in FIG. 2. The luminescent signal gradually grows very rapidly with increasing concentration of the luminol, until it reaches a maximum value between 0.5 and 1 mM. Further raising the concentration of the enhancer, the chemiluminescent signal begins to decline slowly. At the highest concentration of enhancer, 3.0 mM, the signal is approximately 70% of the maximum value. The luminescent signal grows gradually, and reaches a plateau at the highest concentration of luminol used in the experiment, 10 mM.

peroxidase = details: results obtained by Fujirebio, U.S. Pat. No. 5,171,668; cited from earlier work

Row | Compound | effect on the peroxidase enzyme (peroxidase enzyme) | time course of the chemiluminescent signal ([1]; all enhancer concentrations) | chemiluminescent signal relative to the maximum value ([1]; highest concentration of enhancer, 3.0 mM) | time course of the chemiluminescent signal [2] | time course of the chemiluminescent signal ([3]; 0.75 mM enhancer, 2.00 mM perborate, luminol 0.625-10 mM, pH 8.6) | luminol concentration at which the luminescent signal reaches a plateau ([3]; 0.75 mM enhancer, 2.00 mM perborate, pH 8.6, highest luminol concentration used) | chemiluminescent signal relative to the maximum value ([3]; as printed in Example 4: highest concentration of enhancer, 3.0 mM) | enhancement of luminol chemiluminescence compared with standard enhancer 4-iodophenol (peroxidase)
1 | c1ccc2c(c1)Nc1ccccc1S2 [phenothiazine] | deactivates the peroxidase enzyme |  |  |  |  |  |  | 
2 | O=S(=O)([O-])CCCN1c2ccccc2Sc2ccccc21.[Na+] [sodium 3-(phenothiazin-10-yl)propane-1-sulfonate] |  | reaches a plateau within a few minutes, and then remains stable for at least thirty minutes | approximately 70% | reaches a constant value within a few seconds | reaches a plateau within a few minutes, and then remains stable for at least thirty minutes | 10 mM | approximately 70% | not significantly better than those observed with a standard enhancer such as 4-iodophenol
